The target in one experiment is T1, Human DHODH (Homo sapiens, UniProt Q02127).
T1 construct: 40 μL of purified DHODH (aa31–395, final concentration: 1.25 μg/mL); made in house; host or cells: E. coli BL21 (DE3)
In words: DHODH enzymatic assay (DCPIP reduction). Format: biochemical. As to conditions: 10 μM compound. Here is the method: Expression was induced by adding 0.8 mM IPTG (AppliChem, A1008,0025) and temperature was reduced to 28 °C for 6 hours. […] The clarified supernatant was loaded to the column and washed with PBS (1 mL/min) for 2 h, followed by elution with 10 mM L‐glutathione (Sigma Aldrich, G4251) in PBS. The GST tag was not removed for further analysis. Factions containing hDHODH‐GST protein were pooled, concentrated with centrifugal filters (Ultra‐50 K, Merck Millipore, UFC905096) and shock‐frozen for further analysis. Protein concentration was determined by Bradford measurement.
DHODH enzymatic assay: Enzymatic activity of DHODH was assessed by monitoring the reduction of 2,6‐dichlorophenolinindophenol (DCPIP), which is coupled to the oxidation of dihydroorotate by DHODH. […] The reaction was initiated by adding 50 μL mastermix (2 mM L‐dihydroorotic acid, 0.2 mM decylubiquonone, 0.12 mM 2,6 dichlorphenolindophenol (DCPIP) in assay buffer). DCPIP reduction was monitored at λ=600 nm using Tecan Spark plate reader for 20 min.

For another experiment, the target named is T2, complex III (Bos taurus, UniProt P00157).
T2 construct: tissue Abcam ab109905; host or cells: bovine heart mitochondria
In words: MitoTox complex II+III OXPHOS activity assay kit. Format: biochemical. As to conditions: bovine heart mitochondria; Figure 3F. How it is done: MitoTox™ complex II+III OXPHOS activity assay kit: The assay was performed using the MitoTox™ Complex II+III OXPHOS Activity Assay Kit (ab109905, Abcam) according to the manufacturer's instructions. Compounds or DMSO as a control was mixed with succinate solution (electron donor) and oxidized cytochrome c (electron acceptor) in the presence of complex IV inhibitor […] (2 mM, 60168, Sigma Aldrich) and complex I inhibitor Rotenone (12 μM, R8875, Sigma Aldrich). To start the electron transfer reaction, bovine heart mitochondria (0.03 mg/mL) were added to the mixture and conversion of oxidized cytochrome c into the reduced form was monitored for 5 min at 550 nm using the Tecan Spark plate reader.

Another experiment deals with HCT116 cells. In words: DHODH rescue assay / cell growth (cell confluence, IncuCyte). The class given is cell-based. As to conditions: 1.5 mM OA, 96 h, 2, 6, 7 at 10 μM, 4 at 30 μM. Here is the method: Figure 3 Influence of compounds on cell growth and DHODH activity. (A–C) HCT116 cells were treated with the compounds or DMSO as a control in presence or absence of 100 μM uridine. Cell confluence as a measure of cell growth was monitored over 96 h using IncuCyte ZOOM/S3. (A) Brequinar (BRQ). (B) Myxothiazol (MXT). […] (D–E) In vitro DHODH activity. […] (F) Influence of compound 7 on complex III activity. All data are mean values of three biological replicates (n=3)±SD.
DHODH rescue assay: 2,000 HCT116 or U2OS cells per well were seeded in a clear 96‐well plate and incubated as described above overnight prior to treatment. The next day, the medium was replaced by fresh compound or DMSO containing medium supplemented with control solvent or uridine (100 μM), OA (1.5 mM) or DHO (1.5 mM). Cell growth was monitored every 2 h for a total of 96 h after treatment start using an IncuCyte S3 (Essen BioScience). The cell confluence was quantified as a measure of cell growth using the IncuCyte S3 software (Essen BioScience).

A further experiment relates to U2OS cells. In words: Cell Painting assay (CPA), morphological fingerprints. As to conditions: Homo sapiens, U2OS; Conc 10 μM; 20 h; read-out: Cell count [%]. The class given is cell-based, human. Here is the method:
Therefore, the definition of bioactivity clusters is crucial for proper hypothesis generation for uncharacterized small molecules that are subjected to the CPA and requires thorough inspection of the CPA fingerprints of reference compounds.[[2b], [9], [10]] […] For the CPA, human osteosarcoma U2OS cells were treated with compounds for 20 h prior to detection of cellular components and compartments (DNA, RNA, mitochondria, Golgi, endoplasmic reticulum (ER), actin, plasma membrane) using six different dyes. Morphological features are extracted and differences to the control (cells that were treated with DMSO) are expressed as Z scores. The CPA fingerprints used in this study compile Z scores for 579 features. […] Myxothiazol is an inhibitor of complex III of the mitochondrial electron transport chain.[15] Whereas de novo biosynthesis of pyrimidines takes place in the cytosol, DHODH is the only enzyme of the pyrimidine biosynthesis pathway that is localized at the inner mitochondrial membrane.[16] DHODH catalyzes the oxidation of dihydroorotate (DHO) to orotate by transferring electrons from DHO via the cofactor FMN to ubiquinone to yield ubiquinol. Electrons from ubiquinol are transferred further to complex III (cytochrome b,c1 complex), thereby recycling […] that is required for DHODH activity. In this way, pyrimidine biosynthesis is tightly coupled to the activity of complex III, which ensures that pyrimidine nucleotides and, thus, DNA and RNA are synthesized only if cells are supplied with sufficient amount of ATP via the mitochondrial respiratory chain. Alternatively, cells can replenish their pyrimidine pools via the salvage pathway by uptake of circulating pyrimidines.[5] Whereas proliferating cells rely on de novo pyrimidine biosynthesis to meet the high demand for nucleotides, the salvage pathway is used by resting and fully differentiated cells.[5]
The cell painting assay: The Cell Painting assay[25] was performed as described previously.[[9a], [26]] U2OS medium (5 μL) was added to each well of a 384‐well plate (PerkinElmer CellCarrier‐384 Ultra) prior to addition of 1,600 U2OS cells per well and incubation for 4 h at 37 °C. Standard stock concentration of compounds was 10 mM. […] Compounds were added to the cells using the Echo 520 acoustic dispenser (Labcyte) followed by incubation for 20 h at 37 °C. Subsequently, mitochondria were stained with 0.1 μg/μL Mito Tracker Deep Red for 30 min at 37 °C in the dark. Cells were fixed using 3.7 % formaldehyde (in PBS) for 20 min at 37 °C in the dark. Cells were washed three times using PBS before permeabilization using Triton X‐100 for 15 min 37 °C in the dark. After three additional washing steps, 25 μL of a staining solution were added to each well, which contained 1 % BSA, 5 μL/mL Phalloidin (Alexa594 conjugate, Thermo Fisher Scientific, A12381), 25 μg/mL Concanavalin A (Alexa488 conjugate, Thermo Fisher Scientific, Cat. No. C11252), 5 μg/mL Hoechst 33342 (Sigma, Cat. No. B2261‐25 mg), 1.5 μg/mL WGA‐Alexa594 conjugate (Thermo Fisher Scientific, Cat. No. W11262) and 1.5 μM SYTO 14 solution (Thermo Fisher Scientific, Cat. No. S7576). Plates were incubated for 30 min at 37 °C in the dark and washed three times with PBS. Plates were sealed and centrifuged for 1 min at 500 rpm. The plates were prepared in triplicates with shifted layouts to reduce plate effects and imaged using a Micro XL High‐Content Screening System (Molecular Devices) in 5 channels (DAPI: Ex350‐400/Em410‐480; FITC: Ex470‐500/Em510‐540; Spectrum Gold: Ex520‐545/Em560‐585; TxRed: Ex535‐585/Em600‐650; Cy5: Ex605‐650/Em670‐715) with 9 sites per well and 20× magnification (binning 2).
Generated images were processed with the CellProfiler package[27] (https://cellprofiler.org, version 3.0.0) on a computing cluster of the Max Planck Society to extract 1716 cell features. The data was then further aggregated as medians per well (9 sites→1 well), then over the three replicates.

Structures are written as SMILES. “Also recorded” adds a separate entry of the source.

T1 sequence (Q02127 31-395): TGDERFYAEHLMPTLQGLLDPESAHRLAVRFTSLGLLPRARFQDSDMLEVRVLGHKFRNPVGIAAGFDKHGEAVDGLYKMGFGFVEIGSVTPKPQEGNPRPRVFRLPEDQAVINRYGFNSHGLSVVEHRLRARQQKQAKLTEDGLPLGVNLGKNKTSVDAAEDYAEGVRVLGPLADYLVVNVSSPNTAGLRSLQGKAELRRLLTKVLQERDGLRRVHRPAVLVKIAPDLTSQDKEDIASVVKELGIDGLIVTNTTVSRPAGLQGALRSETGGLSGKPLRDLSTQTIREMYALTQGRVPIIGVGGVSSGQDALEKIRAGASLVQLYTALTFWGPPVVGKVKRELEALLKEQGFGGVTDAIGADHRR

As for `CC(=O)Oc1c(C[C@]23CCOC4(CCCCC4)C2=Nc2ccc(Br)cc23)occc1=O` [Compound 7], the “influence on in vitro DHODH activity, in words” value at Human DHODH is “inactive; also recorded: did not have any influence”. The “influence on complex III activity” value on complex III is recorded as “did not impair”. In addition, the “rescue of cell growth by orotate (OA)” value in the experiment with HCT116 cells is “relieved”. Also, the viability at 10 µM in the experiment on U2OS cells stood at 93%.
